Laboratory results taken from patent US20220323442A1, “ENTERIC-COATED PREPARATION COMPRISING XANTHINE OXIDASE INHIBITOR” (Nippon Chemiphar Co., Ltd., priority 2019, published 2022).

Test: Volume average particle size (D50) by laser diffraction
Format: physicochemical
Settings: amorphous Compound 14 (spray dried), dispersed in 0.2% Aerosol OT aqueous solution, ultrasonic 30 seconds
Source text: The volume average particle size (D50) can usually be measured by dispersing the measurement sample in a solvent such as water or ethanol and measuring the particle size distribution by a laser diffraction method. The measurement sample may be dispersed in a solvent by irradiation of ultrasonic waves or the like. The particle size distribution can be measured by a particle size distribution measuring device (for example, Shimadzu laser diffraction type particle size distribution measuring device SALD-2200). The volume average particle size (D50) can be determined from the obtained particle size distribution result. A commercially available software (for example, Shimadzu WingSALD-2200 version 1.02) can be used for data collection and analysis.
A volume average particle size (D50) of the obtained amorphous Compound 14 was measured with a Shimadzu laser diffraction type particle size distribution measuring device SALD-2200 using a dispersion obtained by adding about 2 mg of a sample to a 0.2% Aerosol OT aqueous solution and irradiating the solution with ultrasonic waves for 30 seconds for dispersion. Shimadzu WingSALD-2200 version 1.02 software was used for data collection and analysis. […] The volume average particle size (D50) of amorphous Compound 14 obtained from the particle size distribution was 2.949 μm.

N#Cc1cc(-c2nc3c(O)ncnc3s2)ccc1Oc1ccccc1 [Compound 14, 2-(3-Cyano-4-phenoxyphenyl)-7-hydroxythiazolo(5,4-d]pyrimidine]
volume average particle size (D50): 2.949 μm
